Source: patent US9340577B2, “HLA binding motifs and peptides and their uses” (priority 1992, dated 2016)
No end group written: not given here.

Experiments:
Experiment in all cases: biochemical
Assay type in all cases: binding
HLA-A3.2 (A*0301) = HLA-A3.2 (A*0301) (Homo sapiens, UniProt P04439)
HLA-A11 (A*1101) = HLA-A11 (A*1101) (Homo sapiens, UniProt P04439, A114D/D185E/E176A/F33Y/L180Q/S129P/T187R)
A31 (A*3101) = A31 (A*3101) (Homo sapiens, UniProt P04439, A270S/D185E/E176V/E277Q/F33T/G231S/G80R/H175R/I121M/I218V/I322F/K168Q/L300P/L318F/M331R/P217A/Q94H/R138Q/T323A/T345S/T97I/V358M)
A*6801 = A*6801 (Homo sapiens, UniProt P04439, A269V/D185E/E176V/E277Q/E87N/F33Y/G231S/I121M/I166T/I218V/L180W/L300P/L318F/N151K/P208A/P217A/Q86R/R169H/T345S)
A*3301 = A*3301 (Homo sapiens, UniProt P04439, A270S/D185E/E176V/E277Q/E87N/F33T/G231S/H175R/I121M/I218V/I322F/K168Q/K210R/L300P/L318F/M331R/P217A/Q86R/Q94H/R138Q/T323A/T345S/T97I/V358M/Y195H)

| Sequence | IC50 (HLA-A3.2 (A*0301)) [nM] | IC50 (HLA-A11 (A*1101)) [nM] | IC50 (A31 (A*3101)) [nM] | IC50 (A*6801) [nM] | IC50 (A*3301) [nM] |
| --- | --- | --- | --- | --- | --- |
| QVVPPINISK [Peptide 1589.23] | 1280 | 11 | 1560 | 14 | > 20000 |
| RINTWKSLVK [Peptide 9017.0215] | 12 | 10 | 632 | 11500 | > 20000 |
| RLECAIYYK [Peptide 1589.01] | 55 | 30 | 150 | 7020 | 6550 |
| RLECVLMYK [Peptide 1589.12] | 8.7 | 21 | 44 | 3630 | 828 |
| RLIERIRER [Peptide 9017.0124] | 57 | 407 | 14 | 983 | 1100 |
| RLKAICIEK [Peptide 1587.01] | 43 | 520 | 20 | > 20000 | > 20000 |
| RLLKETELRK [Peptide 9012.0248] | 27 | 52 | 7010 | 12800 | > 20000 |
| RQMNMSQWIK [Peptide 1587.54] | 18 | 7.5 | 41 | 3110 | > 20000 |
| RQMSMGQWIK [Peptide 1587.35] | 53 | 6 | 48 | 2230 | > 20000 |
| RVLQGLPREK [Peptide 9012.0238] | 38 | 35 | 88 | 14400 | > 20000 |
| SFFQNLQVIR [Peptide 9012.0232] | 3800 | 3990 | 432 | 1400 | 702 |
| SFFSRTWCR [Peptide 1587.42] | 2380 | 155 | 2.2 | 28 | 3.5 |
| SFFSRTWSR [Peptide 1587.16] | 1140 | 26 | 0.29 | 3.6 | 0.59 |
| SFMELVRPFK [Peptide 88.0163] | 2020 | 199 | 7.7 | 1390 | 3.3 |
| SFSELVRPFK [Peptide 1587.03] | 4250 | 551 | 2 | 5340 | 24 |
| SIVGWPAVR [Peptide 9017.0058] | 1090 | 632 | 79 | 21 | 469 |
| SQIEHWKLIR [Peptide 88.0213] | 16600 | 86 | 515 | 1330 | > 20000 |
| SQWIKYRCDR [Peptide 88.0136] | 19100 | 11000 | 418 | > 20000 | 2710 |
| SSCMGGMNR [Peptide 1556.59] | 206 | 16 | 54 | 110 | 39 |
| SSIVGWPAVR [Peptide 9017.0185] | 3170 | 22 | 26 | 14 | 648 |
| STAAALYWYR [Peptide 1587.32] | 89 | 4 | 2.4 | 4.1 | 28 |
| STCMGGMNR [Peptide 1556.61] | 281 | 1100 | 157 | 1630 | 17900 |

| Sequence | IC50 (HLA-A3.2 (A*0301)) [nM] | IC50 (HLA-A11 (A*1101)) [nM] | IC50 (A31 (A*3101)) [nM] | IC50 (A*6801) [nM] | IC50 (A*3301) [nM] |
| --- | --- | --- | --- | --- | --- |
| STVSVGTAK [Peptide 1589.09] | 34 | 6 | 1760 | 9.9 | 16000 |
| STWHWTGCNK [Peptide 1589.28] | 72 | 15 | 160 | 32 | 1900 |
| SVAALYWYR [Peptide 88.0341] | 32 | 4.5 | 3.7 | 4.1 | 0.87 |
| SVICFVNSK [Peptide 1587.15] | 109 | 3.5 | 1910 | 8.6 | 2850 |
| SVRKLTEDR [Peptide 9017.0106] | 16800 | 7640 | 48 | 226 | 646 |
| SVYGDTLEK [Peptide 78.0277] | 72 | 14 | > 20000 | 17 | > 20000 |
| SVYGETLEK [Peptide 78.0291] | 347 | 166 | > 20000 | 2620 | > 20000 |
| SVYGTTLEK [Peptide 78.0282] | 19 | 3.8 | 8880 | 15 | > 20000 |
| TALIKPKKR [Peptide 9017.0102] | > 20000 | 2730 | 1740 | 295 | 774 |
| TFWNPPTTAR [Peptide 1556.02] | 18100 | 1500 | 57 | 29 | 40 |
| TIAYIEYRK [Peptide 9017.0119] | 911 | 24 | 3300 | 7.8 | 892 |
| TILWKDIFHR [Peptide 9012.0223] | 1970 | 10 | 33 | 26 | 11 |
| TLWNPPTTAK [Peptide 1556.04] | 22 | 107 | 6830 | 438 | 2240 |
| TLYAEPPK [Peptide 1556.12] | 734 | 269 | > 20000 | 1980 | > 20000 |
| TQQLQDLFK [Peptide 88.0374] | 1700 | 53 | > 20000 | 6680 | 2000 |
| TQQMLQVEGR [Peptide 88.0128] | > 20000 | 3000 | 354 | 739 | 1850 |
| TTNCTYKGR [Peptide 1589.41] | > 20000 | 2210 | 58 | 38 | 165 |
| TTSAELPK [Peptide 1556.23] | 19400 | 221 | > 20000 | 1400 | > 20000 |
| TTTYSPALNK [Peptide 1556.41] | 102 | 2.5 | > 20000 | 18 | > 20000 |
| TVHVYFDGNK [Peptide 1589.24] | 707 | 61 | > 20000 | 97 | > 20000 |
| TVNEYNTHK [Peptide 1589.36] | 83 | 20 | 4120 | 49 | 2730 |
| TVQVYFDGNK [Peptide 88.0202] | 1110 | 14 | 4620 | 121 | 15600 |
